Reference: the NIST ThermoML archive (doi:10.1021/je700717w)

What was measured:
[1] = xn = mol fraction of the nth substance listed; conditions: 101 kPa, Liquid, Taylor dispersion method, x1 = 0
[2] = 101 kPa, Liquid, Taylor dispersion method

binary diffusion coefficient ([1]; 293.15 K) [m2/s]	binary diffusion coefficient ([1]; 298.15 K) [m2/s]	binary diffusion coefficient ([1]; 303.15 K) [m2/s]	binary diffusion coefficient ([1]; 313.15 K) [m2/s]	binary diffusion coefficient ([1]; 323.15 K) [m2/s]	binary diffusion coefficient ([1]; 333.15 K) [m2/s]	binary diffusion coefficient ([1]; 343.15 K) [m2/s]	binary diffusion coefficient ([1]; 353.15 K) [m2/s]	binary diffusion coefficient ([1]; 363.15 K) [m2/s]	binary diffusion coefficient ([1]; 368.15 K) [m2/s]	self diffusion coefficient ([2]; 293.15 K) [m2/s]	self diffusion coefficient ([2]; 298.15 K) [m2/s]	self diffusion coefficient ([2]; 303.15 K) [m2/s]	self diffusion coefficient ([2]; 313.15 K) [m2/s]	self diffusion coefficient ([2]; 323.15 K) [m2/s]	self diffusion coefficient ([2]; 333.15 K) [m2/s]	self diffusion coefficient ([2]; 343.15 K) [m2/s]	self diffusion coefficient ([2]; 353.15 K) [m2/s]	self diffusion coefficient ([2]; 363.15 K) [m2/s]	self diffusion coefficient ([2]; 368.15 K) [m2/s]	SMILES
1.7e-09	2.05e-09	2.3e-09	2.99e-09	4.02e-09	4.9e-09	5.79e-09	7.09e-09	8.23e-09	8.87e-09	–	–	–	–	–	–	–	–	–	–	[N-]=[N+]=O [nitrous oxide] + O
–	–	–	–	–	–	–	–	–	–	1.7e-09	2.05e-09	2.3e-09	2.99e-09	4.02e-09	4.9e-09	5.79e-09	7.09e-09	8.23e-09	8.87e-09	O [water]
